Laboratory results from patent publication US10710992B2, “Substituted pyridinones as bromodomain inhibitors” (Zenith Epigenetics Ltd., priority 2014, dated 2020).
pIC50: −log10 of the molar value.

Tests used:
[1] = system: c-myc in Human AML MV4-11 cells; assay: Inhibition of cMYC expression in cancer cell lines (mRNA, real-time PCR); assay type: cell-based; conditions: Homo sapiens, 3 h, cMYC mRNA normalized to Cyclophilin
Method: MV4-11 cells (CRL-9591) were plated at a density of 2.5×10^4 cells per well in 96 well U-bottom plates and treated with increasing concentrations of test compound or DMSO (0.1%) in IMDM media containing 10% FBS and penicillin/streptomycin, and incubated for 3 h at 37° C. Triplicate wells were used for each concentration. Cells were pelleted by centrifugation and harvested using the mRNA Catcher PLUS kit according to manufacturer's instructions. The eluted mRNA isolated was then used in a one-step quantitative real-time PCR reaction, using components of the RNA UltraSense™ One-Step Kit (Life Technologies) together with Applied Biosystems TaqMan® primer-probes for cMYC and Cyclophilin. Real-time PCR plates were run on a ViiA™ 7 real time PCR machine (Applied Biosystems), data was analyzed, normalizing the Ct values for cMYC to an internal control, prior to determining the fold expression of each sample, relative to the control.

Human AML MV-4-11 cells = assay: Inhibition of cell proliferation in cancer cell lines (CellTiter Aqueous One); assay type: cell-based; conditions: Homo sapiens; MV4-11 cells, 72 h
Method: MV4-11 cells (CRL-9591) were plated at a density of 5×10^4 cells per well in 96 well flat bottom plates and treated with increasing concentrations of test compound or DMSO (0.1%) in IMDM media containing 10% FBS and penicillin/streptomycin. Triplicate wells were used for each concentration and a well containing only media was used as a control. Plates were incubated at 37° C., 5% CO2 for 72 h before adding 20 μL of the CellTiter Aqueous One Solution (Promega) to each well and incubated at 37° C., 5% CO2 for an additional 3-4 h. The absorbance was read at 490 nm in a spectrophotometer and the percentage of cell titer relative to DMSO-treated cells was calculated after correcting for background by subtracting the blank well's signal. IC50 values were calculated using the GraphPad Prism software.

[2] = target: T1, Brd4 bromodomain 1 (BRD4(1)) (Homo sapiens, UniProt O60885); assay: Inhibition of tetra-acetylated histone H4 binding to BET bromodomain (HTRF/FRET); conditions: His-tagged bromodomain 200 nM, tetra-acetylated histone H4 peptide, 2 h room temperature
T1 construct: made in house; host or cells: E. coli BL21(DE3)
Method: Proteins were cloned and overexpressed with a N-terminal 6× His tag, then purified by nickel affinity followed by size exclusion chromatography. Briefly, E. coli BL21(DE3) cells were transformed with a recombinant expression vector encoding N-terminally Nickel affinity tagged bromodomains from Brd2, Brd3, Brd4. Cell cultures were incubated at 37° C. with shaking to the appropriate density and induced overnight with IPTG. The supernatant of lysed cells was loaded onto Ni-IDA column for purification. Eluted protein was pooled, concentrated and further purified by size exclusion chromatography. Fractions representing monomeric protein were pooled, concentrated, aliquoted, and frozen at −80° C. for use in subsequent experiments.
Binding of tetra-acetylated histone H4 and BET bromodomains was confirmed by a Homogenous Time Resolved Fluorescence Resonance Energy Transfer (HTRF®) method. N-terminally His-tagged bromodomains (200 nM) and biotinylated tetra-acetylated historic H4 peptide (25-50 nM, Millipore) were incubated in the presence of Europium Cryptate-labeled streptavidin (Cisbio Cat. #610SAKLB) and XL665-labeled monoclonal anti-His antibody (Cisbio Cat. #61HISXLB) in a white 96 well microtiter plate (Greiner). For inhibition assays, serially diluted test compound was added to these reactions in a 0.2% final concentration of DMSO. Duplicate wells were used for each concentration tested. Final buffer concentrations were 30 mM HEPES pH 7.4, 30 mM NaCl, 0.3 mM CHAPS, 20 mM phosphate pH 7.0, 320 mM KF, 0.08% BSA. After a 2 h incubation at room temperature, fluorescence was measured at 665 and 620 nm with a SynergyH4 plate reader (Biotek). The binding inhibitory activity was shown by a decrease in 665 nm relative to […] fluorescence. IC50 values were determined from a dose response curve.

hIL-6 mRNA = assay: Inhibition of hIL-6 mRNA transcription in LPS-stimulated U937 cells; assay type: cell-based; conditions: Homo sapiens, U-937; PMA-differentiated U937 cells, 1 h pretreatment, LPS 1 ug/mL, 3 h; read-out: IL-6 activity
Method: Human leukemic monocyte lymphoma U937 cells (CRL-1593.2) were plated at a density of 3.2×10^4 cells per well in a 96-well plate in 100 μL RPMI-1640 containing 10% FBS and penicillin/streptomycin, and differentiated into macrophages for 3 days in 60 ng/mL PMA ([…]) at 37° C. in 5% CO2 prior to the addition of compound. The cells were pretreated for 1 h with increasing concentrations of test compound in 0.1% DMSO prior to stimulation with 1 ug/mL lipopolysaccharide from Escherichia coli. Triplicate wells were used for each concentration. The cells were incubated at 37° C., 5% CO2 for 3 h before the cells were harvested. At time of harvest, media was removed and cells were rinsed in 200 μL PBS. Cells were harvested using the mRNA Catcher PLUS kit according to manufacturer's instructions. The eluted mRNA was then used in a one-step quantitative real-time PCR reaction using components of the RNA UltraSense™ One-Step Kit (Life Technologies) together with Applied Biosystems TaqMan® primer-probes for hIL-6 and Cyclophilin. Real-time PCR plates were run on a ViiA™ 7 real time PCR machine (Applied Biosystems), data was analyzed, normalizing the Ct values for hIL-6 to an internal control, prior to determining the fold expression of each sample, relative to the control.

SMILES	pIC50 [1]	pIC50 (Human AML MV-4-11 cells)	pIC50 [2]	pIC50 (hIL-6 mRNA)
Cc1noc(C)c1-c1c[nH]c(=O)c(OCc2ccccc2)c1 [Example 14, 3-(benzyloxy)-5-(3,5-dimethylisoxazol-4-yl)pyridin-2(1H)-one]	4.52 to 5.52	4.52 to 5.52	5.52 to 6.52	5.52 to 6.52
Cc1noc(C)c1-c1c[nH]c(=O)c(Nc2ccc(Cl)cc2)c1 [Example 29, 3-((4-chlorophenyl)amino)-5-(3,5-dimethylisoxazol-4-yl)pyridin-2(1H)-one]	4.52 to 5.52	4.52 to 5.52	5.52 to 6.52	
Cc1noc(C)c1-c1c[nH]c(=O)c(Nc2ccc(C#N)cc2)c1 [Example 28, 4-((5-(3,5-dimethylisoxazol-4-yl)-2-oxo-1,2-dihydropyridin-3-yl)amino)benzonitrile]			5.52 to 6.52	
Cc1noc(C)c1Nc1cc(-c2c(C)noc2C)c[nH]c1=O [Example 34, 5-(3,5-dimethylisoxazol-4-yl)-3-((3,5-dimethylisoxazol-4-yl)amino)pyridin-2(1H)-one]	5.52 to 6.52	5.52 to 6.52	≥ 6.52	5.52 to 6.52
Cc1noc(C)c1-c1c[nH]c(=O)c(-c2c(C)noc2C)c1 [Example 32, 3,5-bis(3,5-dimethylisoxazol-4-yl)pyridin-2(1H)-one]			4.52 to 5.52	
Cc1noc(C)c1-c1c[nH]c(=O)c(NCCc2ccccc2)c1 [Example 22, 5-(3,5-dimethylisoxazol-4-yl)-3-(phenethylamino)pyridin-2(1H)-one]			5.52 to 6.52	
Cc1noc(C)c1-c1c[nH]c(=O)c(NCc2nccs2)c1 [Example 30, 5-(3,5-dimethylisoxazol-4-yl)-3-((thiazol-2-ylmethyl)amino)pyridin-2(1H)-one]	4.52 to 5.52	5.52 to 6.52	≥ 6.52	5.52 to 6.52
Cc1noc(C)c1-c1c[nH]c(=O)c(NCc2ccc(F)cc2)c1 [Example 21, 5-(3,5-dimethylisoxazol-4-yl)-3-((4-fluorobenzyl)amino)pyridin-2(1H)-one]	5.52 to 6.52	5.52 to 6.52	≥ 6.52	5.52 to 6.52
Cc1noc(C)c1-c1c[nH]c(=O)c(OCc2ccc(F)cc2)c1 [Example 27, 5-(3,5-dimethylisoxazol-4-yl)-3-((4-fluorobenzyl)oxy)pyridin-2(1H)-one]	5.52 to 6.52	4.52 to 5.52	5.52 to 6.52	5.52 to 6.52
Cc1noc(C)c1-c1c[nH]c(=O)c(NCc2ccc(C(F)(F)F)cc2)c1 [Example 10, 5-(3,5-dimethylisoxazol-4-yl)-3-((4-(trifluoromethyl)benzyl)amino)pyridin-2(1H)-one]	4.52 to 5.52	4.52 to 5.52	5.52 to 6.52	5.52 to 6.52
Cc1noc(C)c1-c1c[nH]c(=O)c(Nc2ccccc2F)c1 [Example 15, 5-(3,5-dimethylisoxazol-4-yl)-3-((2-fluorophenyl)amino)pyridin-2(1H)-one]			5.52 to 6.52	
Cc1noc(C)c1-c1c[nH]c(=O)c(NCc2ccc3ccccc3c2)c1 [Example 33, 5-(3,5-dimethylisoxazol-4-yl)-3-((naphthalen-2-ylmethyl)amino)pyridin-2(1H)-one]	4.52 to 5.52	4.52 to 5.52	5.52 to 6.52	5.52 to 6.52
Cc1noc(C)c1-c1c[nH]c(=O)c(Oc2ccccc2)c1 [Example 5, 5-(3,5-dimethylisoxazol-4-yl)-3-phenoxypyridin-2(1H)-one]			5.52 to 6.52	
Cc1noc(C)c1-c1c[nH]c(=O)c(Nc2ccc(F)cc2)c1 [Example 16, 5-(3,5-dimethylisoxazol-4-yl)-3-((4-fluorophenyl)amino)pyridin-2(1H)-one]			5.52 to 6.52	
Cc1noc(C)c1-c1c[nH]c(=O)c(NCc2ccc(C#N)s2)c1 [Example 36, 5-(((5-(3,5-dimethylisoxazol-4-yl)-2-oxo-1,2-dihydropyridin-3-yl)amino)methyl)thiophene-2-carbonitrile]	4.52 to 5.52	4.52 to 5.52	≥ 6.52	5.52 to 6.52
Cc1noc(C)c1-c1c[nH]c(=O)c(NCc2cccnc2)c1 [Example 23, 5-(3,5-dimethylisoxazol-4-yl)-3-((pyridin-3-ylmethyl)amino)pyridin-2(1H)-one]	5.52 to 6.52		≥ 6.52	5.52 to 6.52
Cc1noc(C)c1-c1c[nH]c(=O)c(NCc2ccc(Br)cc2)c1 [Example 19, 3-((4-bromobenzyl)amino)-5-(3,5-dimethylisoxazol-4-yl)pyridin-2(1H)-one]	4.52 to 5.52	4.52 to 5.52	5.52 to 6.52	
Cc1noc(C)c1-c1c[nH]c(=O)c(NCc2nc3ccccc3[nH]2)c1 [Example 38, 3-(((1H-benzo[d]imidazol-2-yl)methyl)amino)-5-(3,5-dimethylisoxazol-4-yl)pyridin-2(1H)-one]			5.52 to 6.52	
COc1cccc(Nc2cc(-c3c(C)noc3C)c[nH]c2=O)c1 [Example 7, 5-(3,5-dimethylisoxazol-4-yl)-3-((3-methoxyphenyl)amino)pyridin-2(1H)-one]		4.52 to 5.52	5.52 to 6.52	
Cc1noc(C)c1-c1c[nH]c(=O)c(OCc2ccccn2)c1 [Example 26, 5-(3,5-dimethylisoxazol-4-yl)-3-(pyridin-2-ylmethoxy)pyridin-2(1H)-one]			5.52 to 6.52	
Cc1noc(C)c1-c1c[nH]c(=O)c(NCc2cnoc2)c1 [Example 31, 5-(3,5-dimethylisoxazol-4-yl)-3-((isoxazol-4-ylmethyl)amino)pyridin-2(1H)-one]			5.52 to 6.52	
Cc1noc(C)c1-c1c[nH]c(=O)c(NC(C)c2ccc(Cl)cc2)c1 (centres unmarked) [Example 18, 3-((1-(4-chlorophenyl)ethyl)amino)-5-(3,5-dimethylisoxazol-4-yl)pyridin-2(1H)-one]	5.52 to 6.52	4.52 to 5.52	5.52 to 6.52	
Cc1noc(C)c1-c1c[nH]c(=O)c(OCc2ccc(C#N)cc2)c1 [Example 25, 4-(((5-(3,5-dimethylisoxazol-4-yl)-2-oxo-1,2-dihydropyridin-3-yl)oxy)methyl)benzonitrile]			5.52 to 6.52	
Cc1cccc(Nc2cc(-c3c(C)noc3C)c[nH]c2=O)c1 [Example 6, 5-(3,5-dimethylisoxazol-4-yl)-3-(m-tolylamino)pyridin-2(1H)-one]		5.52 to 6.52	≥ 6.52	5.52 to 6.52
Cc1noc(C)c1-c1c[nH]c(=O)c(NCc2ccc(Cl)s2)c1 [Example 12, 3-(((5-chlorothiophen-2-yl)methyl)amino)-5-(3,5-dimethylisoxazol-4-yl)pyridin-2(1H)-one]		5.52 to 6.52	≥ 6.52	5.52 to 6.52
